Test results: US20060069132A1, “Azolecarboxamide herbicides” (priority 2004, published 2006)

Legend:
barnyardgrass [1] = experiment: Test B pre-/postemergence herbicide test; format: in vivo, Echinochloa crus-galli; settings: for Barnyardgrass plant response rating: Postemergence, scale 0 (no effect) to 100 (complete control)
Method in brief: (§1)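 Plants compared with untreated controls 13–15 days post-treatment and given a visual 0–100 injury score. Applications: preemergence to seeds; postemergence at 1- to 4-leaf (2–18 cm); paddy species flooded, 2-leaf stage. Vehicle non-phytotoxic, surfactant included.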

Surinam grass = experiment: Test B pre-/postemergence herbicide test; format: in vivo, Urochloa decumbens
Method in brief: (§2)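 Visual rating, 0 (no effect) to 100 (complete control), versus untreated controls after 13–15 d in greenhouse. Pre- and postemergence applications (postemergence plants 2–18 cm, 1–4 leaves); flooded paddy arm at 2-leaf stage. Compounds in non-phytotoxic solvent plus surfactant.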

cocklebur = experiment: Test B pre-/postemergence herbicide test; format: in vivo, Xanthium strumarium
Method in brief: as §1

corn = experiment: Test B pre-/postemergence herbicide test; format: in vivo, Zea mays
Method in brief: as §2

large crabgrass = experiment: Test B pre-/postemergence herbicide test; format: in vivo, Digitaria sanguinalis
Method in brief: as §2

giant foxtail = experiment: Test B pre-/postemergence herbicide test; format: in vivo, Setaria faberi
Method in brief: as §2

lambsquarters = experiment: Test B pre-/postemergence herbicide test; format: in vivo, Chenopodium album
Method in brief: as §2

morningglory = experiment: Test B pre-/postemergence herbicide test; format: in vivo, Ipomoea coccinea
Method in brief: as §1

pigweed = experiment: Test B pre-/postemergence herbicide test; format: in vivo, Amaranthus retroflexus
Method in brief: as §2

velvetleaf = experiment: Test B pre-/postemergence herbicide test; format: in vivo, Abutilon theophrasti
Method in brief: as §2

blackgrass [2] = experiment: Test B postemergence herbicide test; format: in vivo, Alopecurus myosuroides
Method in brief: (§3)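 Formulated test chemicals went onto postemergence plants measuring 2 to 18 cm, at one to four leaves. For the paddy assay, species had reached two leaves. Scoring took place 13–15 days later by eye, relative to untreated plants, using 0 for no effect up to 100 for full control.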

wheat [3] = experiment: Test B postemergence herbicide test; format: in vivo, Triticum aestivum; parameters: key to Wheat plant response rating: 0 = no effect, 100 = complete control
Method in brief: (§4)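 After treating 2-leaf paddy plants or 2–18 cm postemergence plants (1 to 4 leaves) with formulated chemical, researchers kept them in a greenhouse for 13–15 days. Effects were judged visually versus controls: 0 indicates none, 100 total control.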

wild oat [4] = experiment: Test B postemergence herbicide test; format: in vivo, Avena fatua
Method in brief: as §4

rice = experiment: Test B flooded paddy test; format: in vivo, Oryza sativa; settings: 1000 g ai/ha, scale 0 to 100 (0 no effect, 100 complete control)
Method in brief: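 Read-out: visual comparison with controls, scored 0 to 100, where 100 means complete control and 0 no effect. Formulated chemicals were applied postemergence to plants 2–18 cm tall (1- to 4-leaf), or to flooded-paddy plants at the 2-leaf stage, then held 13 to 15 days under glass.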

[5] = system: small flower umbrella sedge; experiment: Test B flooded paddy test; format: in vivo, Cyperus difformis; settings: 1000 g ai/ha, scale 0 to 100 (0 no effect, 100 complete control)
Method in brief: as §3

ducksalad = experiment: Test B flooded paddy test; format: in vivo, Heteranthera limosa; settings: 1000 g ai/ha, scale 0 to 100 (0 no effect, 100 complete control)
Method in brief: as §3

barnyardgrass [6] = experiment: Test B flooded paddy test; format: in vivo, Echinochloa crus-galli; settings: 1000 g ai/ha, scale 0 to 100 (0 no effect, 100 complete control)
Method in brief: as §3

winter barley = experiment: Test C postemergence herbicide test; format: in vivo, Hordeum vulgare
Procedure: (§5) At the same time, plants selected from these crop and weed species and also winter barley (Hordeum vulgare L.), blackgrass (Alopecurus myosuroides Huds.), canarygrass (Phalaris minor Retz.), chickweed (Stellaria media (L.) Vill.), downy bromegrass (Bromus tectorum L.), green foxtail (Setaria viridis (L.) Beauv.), Italian ryegrass (Lolium multiflorum Lam.), wheat (Triticum aestivum L.), wild oat (Avenafatua L.) and windgrass (Apera spica-venti (L.) Beauv.) were treated with postemergence applications of some of the test chemicals formulated in the same manner. Plants ranged in height from 2 to 18 cm (1- to 4-leaf stage) for postemergence treatments. Plant species in the flooded paddy test consisted of rice (Oryza sativa), smallflower umbrella sedge (Cyperus difformis L.), ducksalad (Heteranthera limosa (Sw.) Willd.) and barnyardgrass (Echinochloa crus-galli (L.) Beauv.) grown to the 2-leaf stage for testing. Treated plants and controls were maintained in a greenhouse for 12 to 14 days, after which time all species were compared to controls and visually evaluated. Plant response ratings, summarized in Table C, are based on a scale of 0 to 100 where 0 is no effect and 100 is complete control. A dash (-) response means no test result.

blackgrass [7] = experiment: Test C postemergence herbicide test; format: in vivo, Alopecurus myosuroides
Procedure: as §5

canarygrass = experiment: Test C postemergence herbicide test; format: in vivo, Phalaris minor
Procedure: as §5

downy bromegrass = experiment: Test C postemergence herbicide test; format: in vivo, Bromus tectorum
Procedure: as §5

green foxtail = experiment: Test C postemergence herbicide test; format: in vivo, Setaria viridis
Procedure: as §5

Italian ryegrass = experiment: Test C postemergence herbicide test; format: in vivo, Lolium multiflorum
Procedure: as §5

wheat [8] = experiment: Test C postemergence herbicide test; format: in vivo, Triticum aestivum
Procedure: as §5

wild oat [9] = experiment: Test C postemergence herbicide test; format: in vivo, Avenafatua
Procedure: as §5

windgrass = experiment: Test C postemergence herbicide test; format: in vivo, Apera spica-venti
Procedure: as §5

[10] = 125 g ai/ha, 0 is no effect, 100 is complete control, preemergence
[11] = Postemergence, 500 g ai/ha, scale 0 (no effect) to 100 (complete control)
[12] = postemergence, 125 g ai/ha, scale 0 to 100
[13] = Postemergence, 500 g ai/ha, scale 0 to 100
[14] = Postemergence, 250 g ai/ha, scale 0 to 100, 0 no effect, 100 complete control
[15] = postemergence, 62 g ai/ha, scale 0 to 100
[16] = Postemergence, 500 g ai/ha, scale 0 to 100, 0 no effect, 100 complete control

C=CCN(CC=C)C(=O)c1ccc(F)c(NC(=O)c2cc(C(C)(C)C)nn2CC)c1 [Compound 431]
Plant response rating (0 to 100 scale), Barnyardgrass (barnyardgrass [1]; [10]): 10 | Barnyardgrass plant response rating (barnyardgrass [1]; 125 g ai/ha): 10 | Barnyardgrass plant response rating (barnyardgrass [1]; 500 g ai/ha): 20 | Plant response rating (0 to 100 scale), Surinam Grass (Surinam grass; [10]): 10 | Surinam Grass plant response rating (Surinam grass; [11]): 30 | Surinam Grass plant response rating (Surinam grass; [12]): 20 | Plant response rating (0 to 100 scale), Cocklebur (cocklebur; [10]): 0 | Cocklebur plant response rating (cocklebur; [11]): 60 | Cocklebur plant response rating (cocklebur; [12]): 30 | Plant response rating (0 to 100 scale), Corn (corn; [10]): 0 | Corn plant response rating (corn; [11]): 20 | Corn plant response rating (corn; [12]): 20 | Plant response rating (0 to 100 scale), Crabgrass, Large (large crabgrass; [10]): 60 | Crabgrass, Large plant response rating (large crabgrass; [11]): 30 | Crabgrass, Large plant response rating (large crabgrass; [12]): 20 | Plant response rating (0 to 100 scale), Foxtail, Giant (giant foxtail; [10]): 50 | Foxtail, Giant plant response rating (giant foxtail; [11]): 30 | Foxtail, Giant plant response rating (giant foxtail; [12]): 20 | Plant response rating (0 to 100 scale), Lambsquarters (lambsquarters; [10]): 60 | Lambsquarters plant response rating (lambsquarters; [11]): 60 | Lambsquarters plant response rating (lambsquarters; [12]): 40 | Plant response rating (0 to 100 scale), Morningglory (morningglory; [10]): 0 | Morningglory plant response rating (morningglory; [11]): 70 | Morningglory plant response rating (morningglory; [12]): 40 | Plant response rating (0 to 100 scale), Pigweed (pigweed; [10]): 40 | Pigweed plant response rating (pigweed; [11]): 70 | Pigweed plant response rating (pigweed; [12]): 50 | Plant response rating (0 to 100 scale), Velvetleaf (velvetleaf; [10]): 20 | Velvetleaf plant response rating (velvetleaf; [11]): 40 | Velvetleaf plant response rating (velvetleaf; [12]): 20 | Blackgrass plant response rating (blackgrass [2]; [11]): 50 | Blackgrass plant response rating (blackgrass [2]; [12]): 30 | Wheat plant response rating (wheat [3]; 500 g ai/ha, scale 0 to 100, 0 no effect, 100 complete control, preemergence): 10 | Wheat plant response rating (wheat [3]; [11]): 30 | Wheat plant response rating (wheat [3]; [12]): 30 | Oat, Wild plant response rating (wild oat [4]; [11]): 50 | Oat, Wild plant response rating (wild oat [4]; [12]): 30 | Rice plant response rating (rice): 30 | Sedge, Umbrella plant response rating [5]: 80 | Ducksalad plant response rating (ducksalad): 80 | Barnyardgrass plant response rating (barnyardgrass [6]): 60 | Barley, Winter plant response rating (winter barley; [13]): 60 | Plant response rating, Barley, Winter (winter barley; [14]): 45 | Plant response rating, Barley, Winter (winter barley; postemergence, 125 g ai/ha, scale 0 to 100 (0 no effect, 100 complete control)): 40 | Plant response rating, Barley, Winter (winter barley; postemergence, 62 g ai/ha, scale 0 to 100 (0 no effect, 100 complete control)): 40 | Blackgrass plant response rating (blackgrass [7]; [13]): 60 | Plant response rating, Blackgrass (blackgrass [7]; [14]): 60 | Plant response rating, Blackgrass (blackgrass [7]; [12]): 55 | Plant response rating, Blackgrass (blackgrass [7]; [15]): 45 | Plant response rating, Canarygrass (canarygrass; [14]): 60 | Plant response rating, Canarygrass (canarygrass; [16]): 60 | Plant response rating, Canarygrass (canarygrass; [12]): 45 | Plant response rating, Canarygrass (canarygrass; [15]): 40 | Plant response rating, Bromegrass, Downy (downy bromegrass; [14]): 55 | Plant response rating, Bromegrass, Downy (downy bromegrass; [16]): 60 | Plant response rating, Bromegrass, Downy (downy bromegrass; [12]): 45 | Plant response rating, Bromegrass, Downy (downy bromegrass; [15]): 40 | Plant response rating, Foxtail, Green (green foxtail; [14]): 60 | Plant response rating, Foxtail, Green (green foxtail; [16]): 65 | Plant response rating, Foxtail, Green (green foxtail; [12]): 60 | Plant response rating, Foxtail, Green (green foxtail; [15]): 45 | Plant response rating, Ryegrass, Italian (Italian ryegrass; [16]): 55 | Plant response rating, Ryegrass, Italian (Italian ryegrass; [12]): 45 | Plant response rating, Ryegrass, Italian (Italian ryegrass; [15]): 40 | Plant response rating, Wheat (wheat [8]; [16]): 45 | Plant response rating, Wheat (wheat [8]; [12]): 40 | Plant response rating, Wheat (wheat [8]; [15]): 40 | Plant response rating, Oat, Wild (wild oat [9]; [16]): 65 | Plant response rating, Oat, Wild (wild oat [9]; [12]): 55 | Plant response rating, Oat, Wild (wild oat [9]; [15]): 45 | Plant response rating, Windgrass (windgrass; [16]): 60 | Plant response rating, Windgrass (windgrass; [12]): 40 | Plant response rating, Windgrass (windgrass; [15]): 40
